Results taken from publication PMC11843585, “A drug-resistant β-lactamase variant changes the conformation of its active-site proton shuttle to alter substrate specificity and inhibitor potency” (The Journal of Biological Chemistry, 2025).
“And” between values parts separate entries of the source, which are not always exact repeats. Identical values can stand only once. “Also recorded” adds a separate entry of the source.

What was measured:
[1] = biological target: T1, WT CTX-M-14 β-lactamase (Escherichia coli, UniProt Q9L5C7); assay: Clavulanic acid inhibition (Ki, Morrison fit), WT enzyme; assay type: biochemical; conditions: ampicillin (100 μM) as indicator substrate, 20 min preincubation
T1 construct: His6 (TEV-cleavable) (N, cleaved yes); made in house; host or cells: E. coli BL21(DE3), plasmid pET28a-CTX-M-14
Experimental: (§1) The Ki values for clavulanic acid inhibition of CTX-M-14 WT and variants were determined by mixing the enzymes with increasing concentrations of clavulanic acid in buffer containing 50 mM sodium phosphate (pH 7.0) and 1 μg/ml BSA and incubating at room temperature for 20 min. Enzyme activity was evaluated by monitoring the initial velocity of hydrolysis of 100 μM ampicillin using Beckman Coulter spectrophotometer model DU 800. The percentage activity was calculated by dividing the initial hydrolysis velocity for ampicillin in the presence of clavulanic acid by the velocity in the absence of clavulanic acid and plotted as a function of clavulanic acid concentration. The Ki values were obtained by fitting the data into Morrison equation using GraphPad Prism 5 ([55]).

[2] = biological target: T2, CTX-M-14 K234R β-lactamase (Escherichia coli, UniProt Q9L5C7, K237R); assay: Clavulanic acid inhibition (Ki, Morrison fit), K234R enzyme; assay type: biochemical; conditions: ampicillin as indicator substrate, 20 min preincubation
T2 construct: His6 (TEV-cleavable) (N, cleaved yes); made in house; host or cells: E. coli BL21(DE3), pET28a-CTX-M-14 with K234R
Experimental: as §1

[3] = biological target: T3, CTX-M-14 S130A β-lactamase (Escherichia coli, UniProt Q9L5C7, S133A); assay: Clavulanic acid inhibition (Ki, Morrison fit), S130A enzyme; assay type: biochemical; conditions: ampicillin as indicator substrate, 20 min preincubation
T3 construct: His6 (TEV-cleavable) (N, cleaved yes); made in house; host or cells: E. coli BL21(DE3)
Experimental: as §1

[4] = biological target: T4, CTX-M-14 S130A/K234R β-lactamase (Escherichia coli, UniProt Q9L5C7, K237R/S133A); assay: Clavulanic acid inhibition (Ki, Morrison fit), S130A/K234R enzyme; assay type: biochemical
T4 construct: His6 (TEV-cleavable) (N, cleaved yes); made in house; host or cells: E. coli BL21(DE3)
Experimental: as §1

[5] = biological target: T2, CTX-M-14 K234R β-lactamase; assay: Steady-state kinetics of β-lactam hydrolysis, K234R enzyme; assay type: biochemical; conditions: for Km / kcat: 25 °C, pH 7.0
Experimental: (§2) Michaelis–Menten steady-state kinetic parameters of CTX-M-14 β-lactamases were determined on various β-lactam substrates. Wavelength and extinction coefficients used for detection were as follows: ampicillin, 235 nm, Δε = 900 M^−1 cm^−1; cephalothin, 262 nm, Δε = 7,660 M^−1 cm^−1; cefotaxime, 264 nm, Δε = 7,250 M^−1 cm^−1; nitrocefin, 482 nm, Δε = 15,000 M^−1 cm^−1; cefpodoxime, 235 nm, Δε = 1,023 M^−1 cm^−1; ceftriaxone, 241 nm, Δε = 2,046 M^−1 cm^−1. Enzymatic reactions were performed at 25 °C in buffer containing 50 mM sodium phosphate (pH 7.0) and 1 μg/ml BSA. Substrate hydrolysis was monitored by Beckman Coulter spectrophotometer model DU 800 (Beckman Coulter, Brea, CA, USA). Initial hydrolysis velocities of substrate were plotted as a function of concentrations and fitted into a Michaelis–Menten equation using GraphPad Prism 5 (GraphPad Software, San Diego, CA, USA) to obtain Km and kcat values. The kcat/Km values for the enzymes where kcat and Km could not be determined independently were estimated using the equation, ν = (kcat/Km)[E][S], where [S] ≪ Km ([54]).

[6] = biological target: T3, CTX-M-14 S130A β-lactamase; assay: Steady-state kinetics of β-lactam hydrolysis, S130A enzyme; assay type: biochemical; conditions: for fold decrease in kcat / fold increase in Km: S130A compared with WT; for Km / kcat: S130A
Experimental: as §2

[7] = biological target: T4, CTX-M-14 S130A/K234R β-lactamase; assay: Steady-state kinetics of β-lactam hydrolysis, S130A/K234R enzyme; assay type: biochemical
Experimental: as §2

[8] = biological target: T1, WT CTX-M-14 β-lactamase; assay: Single-turnover stopped-flow kinetics, WT enzyme; assay type: biochemical
Experimental: (§3) Single-turnover kinetics experiments were used to determine the acylation rate for the CTX-M-14 WT and K234R enzymes. Kinetic measurements were carried out at 25 °C using a using a KinTek stopped-flow instrument. Protein concentrations used in this experiment exceed the substrate concentrations. To prepare sample injection, 1 ml of increasing concentrations of CTX-M-14 proteins and 1 ml of 2.5–5 μM cefotaxime were loaded into two separate drive syringes. 5 μM cefotaxime was used for single-turnover experiments with WT CTX-M-14, whereas 2.5 μM cefotaxime was used in experiments with the K234R enzyme. Data collection times were adjusted empirically. Absorbance at 264 nm was monitored after samples in two syringes were mixed. For each selected time period, 1,000 data points were collected, and at least three kinetic traces were obtained to ensure high-quality data. Kinetic data with various protein concentrations were fitted to a single-exponential function, At=A^(−kt)+C , to determine kobs, which was then used to determine k2 by fitting kobs as a function of enzyme concentration to a hyperbola, as has been reported previously for serine β-lactamases and serine proteases ([33], [34], [35]). The deacylation rate constant, k3, was calculated from the experimental values determined for kcat and k2, using the equation, kcat = k2 × k3/(k2 + k3). Solving the equation for kcat in terms of k3 gives k3 = (k2 × kcat)/(kcat − k2). The error in the calculated value of k3 was determined by propagating the errors in k2 and kcat through the equation by adding the absolute errors for the sum (difference) in the denominator to obtain the absolute and the percentage error in kcat − k2. The percentage error of the numerator, (kcat × k2), was calculated by adding the percentage error for kcat and k2, and the final percentage and absolute errors on k3 were then obtained by adding the percentage error of the numerator and denominator to yield the percentage error in k3.

[9] = biological target: T2, CTX-M-14 K234R β-lactamase; assay: Single-turnover stopped-flow kinetics, K234R enzyme; assay type: biochemical
Experimental: as §3, with “Kinetic data with various protein concentrations were fitted to a single-exponential function, At=A^(−kt)+C , to determine kobs, which was then used to determine k2 by fitting kobs as a function of enzyme concentration to a hyperbola, as has been reported previously for serine β-lactamases and serine proteases ([33], [34], [35]).” left out, “Solving the equation for kcat in terms of k3 gives k3 = (k2 × kcat)/(kcat − k2).” left out, “The percentage error of the numerator, (kcat × k2), was calculated by adding the percentage error for kcat and k2, and the final percentage and absolute errors on k3 were then obtained by adding the percentage error of the numerator and denominator to yield the percentage error in k3.” left out

[10] = tested on: CTX-M β-lactamases; conditions: CTX-M versus TEM-1; cited from earlier work
[11] = tested on: PSE-4 β-lactamase; parameters: method as in PMID 11148033, PMID 9756758; conditions: WT PSE-4; cited from earlier work
[12] = tested on: TEM-1 S130G β-lactamase; parameters: method as in PMID 15981999; conditions: cited from earlier work
[13] = biological target: T1, WT CTX-M-14 β-lactamase; assay: Steady-state kinetics of β-lactam hydrolysis, WT enzyme; assay type: biochemical
Experimental: as §2

[14] = tested on: CC1(C)S[C@@H]2[C@H](NC(=O)[C@H](N)c3ccccc3)C(=O)N2[C@H]1C(=O)O; assay: as above; assay type: biochemical; conditions: other: WT CTX-M-14, 25 °C, pH 7.0
Experimental: as §2

[15] = tested on: CO/N=C(\C(=O)N[C@@H]1C(=O)N2C(C(=O)O)=C(COC(C)=O)CS[C@H]12)c1csc(N)n1; assay: as above; assay type: biochemical; conditions: other: WT CTX-M-14, 25 °C, pH 7.0
Experimental: as §2

[16] = tested on: TEM-1 β-lactamase K234T; parameters: method as in PMID 1910040; conditions: TEM-1 K234T versus TEM-1; cited from earlier work

O=C(O)[C@H]1/C(=C/CO)O[C@@H]2CC(=O)N21 [Clav acid, Clavulanic acid]
Ki [1]: 0.08 ± 0.001 µM
Ki [2]: 0.39 ± 0.02 µM
Ki [3]: 30 µM and 31 µM
Ki, fold above WT ([4]; S130A/K234R compared with WT): 3,500 fold
Ki ([4]; S130A/K234R, ampicillin as indicator substrate, 20 min preincubation): 270 ± 20 µM

CO/N=C(\C(=O)N[C@@H]1C(=O)N2C(C(=O)O)=C(CSc3nc(=O)c(=O)[nH]n3C)CS[C@H]12)c1csc(N)n1 [ceftriaxone]
fold decrease in Km ([5]; K234R compared with WT): 2 fold
fold decrease in kcat ([5]; K234R compared with WT): 400 fold
fold decrease in kcat/Km ([5]; K234R compared with WT): 170 fold

CO/N=C(\C(=O)N[C@@H]1C(=O)N2C(C(=O)O)=C(COC(C)=O)CS[C@H]12)c1csc(N)n1 [Cefotaxime, cefotaxime]
fold decrease in Km ([5]; K234R compared with WT): 6 fold
fold decrease in kcat ([5]; K234R compared with WT): 500 fold
fold decrease in kcat/Km ([5]; K234R compared with WT): 80 fold
Km ([5]; K234R): 11 ± 4 µM
kcat ([5]; K234R): 0.2 ± 0.01 s⁻¹
kcat ([5]; K234R, listed as cefotaxime): 0.2 s⁻¹
k3 (deacylation rate), lower limit based on kcat ([5]; K234R, inferred from kcat): ≥ 0.2 s⁻¹
fold decrease in kcat [6]: 1,000 fold
fold increase in Km [6]: 4 fold
Km ([6]; 25 °C, pH 7.0): 260 ± 13 µM
kcat ([6]; 25 °C, pH 7.0): 0.1 ± 0.003 s⁻¹
fold reduction in kcat ([7]; S130A/K234R compared with K234R): 400 fold
fold reduction in kcat ([7]; S130A/K234R compared with S130A): 200 fold
Km ([7]; S130A/K234R, 25 °C, pH 7.0): 120 ± 17 µM
kcat ([7]; S130A/K234R, 25 °C, pH 7.0): 0.0005 ± 0.0001 s⁻¹
k3 (deacylation rate) ([8]; calculated from k2 and kcat): 190 s^−1 and 190 ± 35 ^b s^−1
Kd ([8]; fit of kobs from single turnover, read-out: KD (Ks, dissociation constant)): 74 ± 12 µM
k2 (acylation rate) ([8]; single turnover, 5 μM cefotaxime, 25 °C): 210 s⁻¹ and 210 ± 12 s⁻¹
Kd ([9]; fit of kobs from single turnover): 42 ± 8 µM
k2 (acylation rate) ([9]; single turnover, 2.5 μM cefotaxime, 25 °C): 0.14 s⁻¹ and 0.14 ± 0.01 s⁻¹
hydrolysis, fold faster than TEM-1 [10]: ~1,000 fold
kcat, fold lower than for ampicillin hydrolysis [11]: ~2,000 fold

COCC1=C(C(=O)O)N2C(=O)[C@@H](NC(=O)/C(=N\OC)c3csc(N)n3)[C@H]2SC1 [cefpodoxime]
fold decrease in Km ([5]; K234R compared with WT): 9 fold
fold decrease in kcat ([5]; K234R compared with WT): 430 fold
fold decrease in kcat/Km ([5]; K234R compared with WT): 50 fold

CC1(C)S[C@@H]2[C@H](NC(=O)[C@H](N)c3ccccc3)C(=O)N2[C@H]1C(=O)O [Ampicillin, ampicillin]
change in kcat/Km (catalytic efficiency), in words ([5]; K234R compared with WT): unchanged; also recorded: only modestly changed
fold increase in Km ([5]; K234R compared with WT): 9 fold
fold increase in kcat ([5]; K234R compared with WT): 5 fold
fold increase in acylation rate ([5]; K234R compared with WT, inferred from kcat): at least 5 fold
Km ([5]; K234R): 1050 µM
kcat ([5]; K234R): 330 ± 33 s⁻¹
kcat ([5]; K234R, listed as ampicillin): 330 s⁻¹
k2 (acylation rate), lower limit based on kcat ([5]; K234R, inferred from kcat): ≥ 330 s⁻¹
k3 (deacylation rate), lower limit based on kcat ([5]; K234R, inferred from kcat): ≥ 330 s⁻¹
Km [6]: 30000 µM
fold decrease in kcat [6]: 2 fold
fold increase in Km [6]: 260 fold
Km ([6]; 25 °C, pH 7.0): 30700 µM
kcat ([6]; 25 °C, pH 7.0): 30 ± 2 s⁻¹
Km ([7]; S130A/K234R, too high to measure): > 30000 µM
fold reduction in hydrolysis [12]: 10 fold

CO/N=C(\C(=O)N[C@@H]1C(=O)N2C(C(=O)O)=CCS[C@H]12)c1csc(N)n1 [ceftizoxime]
Km, fold higher than for cefotaxime [13]: 45 fold
kcat, fold higher than for cefotaxime [13]: 2 fold
kcat/Km, fold lower than for cefotaxime [13]: 20 fold
fold decrease in Km ([5]; K234R compared with WT): 8 fold
fold decrease in kcat ([5]; K234R compared with WT): 320 fold
fold decrease in kcat/Km ([5]; K234R compared with WT): 40 fold

CC(=O)OCC1=C(C(=O)O)N2C(=O)[C@@H](NC(=O)Cc3cccs3)[C@H]2SC1 [cephalothin]
kcat, fold higher than for cefotaxime [13]: ~7 fold
kcat/Km, fold higher than for cefotaxime [13]: ~3 fold
fold decrease in Km ([5]; K234R compared with WT): 20 fold
fold decrease in kcat ([5]; K234R compared with WT): 100 fold
fold decrease in kcat/Km ([5]; K234R compared with WT): 6 fold

WT CTX-M-14 β-lactamase (Escherichia coli)
Km [14]: 120 ± 10 µM
kcat [14]: 67 ± 3 s⁻¹
kcat/Km [14]: 560000 ± 20000 M⁻¹ s⁻¹
Km [15]: 66 ± 3 µM
kcat [15]: 100 ± 1 s⁻¹
kcat/Km [15]: 1.5e+06 ± 100000 M⁻¹ s⁻¹

CC1(C)S[C@@H]2[C@H](NC(=O)Cc3ccccc3)C(=O)N2[C@H]1C(=O)O [benzylpenicillin]
fold increase in Km [16]: 50 fold
fold reduction in kcat [16]: ~50 fold
